In publication PMC12115217, “3,3′-((3-Hydroxyphenyl)azanediyl)dipropionic Acid Derivatives as a Promising Scaffold Against Drug-Resistant Pathogens and Chemotherapy-Resistant Cancer” (Pathogens, 2025):
≈ marks a conversion by molar mass, not a printed value. Entries after “also recorded” stand apart in the source; their conditions may differ. Structures can show the parent of a compound that is named as a salt.

Columns and labels:
HEK293 cells = test: MTT dose-response IC50, HEK293 cells; assay type: cell-based; details: non-cancerous HEK293 cells, 24 h
Procedure: (§1) FaDu cells were obtained from the American Type Culture Collection (Rockville, MD, USA). HEK293 cells were kindly provided by Dr. Iliev lab at the Jill Roberts Institute for Inflammatory Bowel Disease, Weill Cornel Medicine of Cornel University (New York, NY, USA). All cells were cultivated in Dulbecco’s Modified Eagle Medium/Nutrient Mixture F-12 (DMEM/F-12) (Gibco, Waltham, MA, USA), 10% fetal bovine serum (FBS) (Gibco, Waltham, MA, USA), 100 U/mL penicillin, and 100 μg/mL streptomycin (P/S) (Gibco, Waltham, MA, USA). Culturing conditions were maintained at 37 °C in a humidified atmosphere containing 5% CO2. The culture medium was refreshed every 2–3 days, and cells were passaged upon reaching 70–80% confluence.
(§2) The in vitro inhibitory effects of the compounds were assessed by using the MTT assay. Briefly, cells were plated in 96-well plates at a density of 1 × 10⁴ cells per well. After the cells were allowed to adhere overnight at 37 °C in 5% CO₂, they were treated with compounds at a concentration of 100 µM in triplicate. Following a 20 h incubation, the MTT reagent was added, and the cells were further incubated for 4 h. The resulting formazan was solubilized in anhydrous DMSO, and absorbance was measured at 570 nm by using a microplate reader. Cell viability was calculated by using the following formula: ([AE − AB]/[AC − AB]) × 100%, where AE, AC, and AB represent the absorbance values of experimental samples, untreated controls, and blank wells, respectively. Data analysis was performed by using GraphPad Prism or QuickCalcs.
(§3) The data were fitted to a nonlinear regression model (GraphPad Prism version 9.0, GraphPad Software, San Diego, CA, USA) to calculate the IC50 values for each compound tested in triplicate.

FaDu cells [1] = test: MTT dose-response IC50, FaDu cells; assay type: cell-based; details: 0–100 µM, 24 h
Procedure: as §1, §2, §3

FaDu cells [2] = test: Hydrogen peroxide production assay in FaDu cells; assay type: cell-based; details: 6 h, 0.25% DMSO, versus untreated control
Procedure: FaDu cells were seeded on the 6-well plates and incubated with the compounds as described before. After incubation, cells were cooled down on ice, washed two times with ice-cold PBS, and scraped in PBS. Cells were centrifuged at 10,000× g for 10 min at 4 °C, the supernatant was discarded, and 650 µL of ice-cold PBS was added. Cells were sonicated and centrifuged at 10,000× g for 10 min at 4 °C to remove cell debris. The resulting supernatant was carefully collected for subsequent hydrogen peroxide analysis by using a commercial kit (Pierce™ Quantitative Peroxide Assay Kit (Aqueous), Catalog number 23280) (Invitrogen, ThermoFisher Scientific, Waltham, MA, USA).

E. coli AR-0001 [3] = test: Broth microdilution MIC, E. coli AR-0001; assay type: cell-based; details: Escherichia coli, AR0001; multidrug-resistant, KPC-3; CAMHB, 18 ± 2 h; read-out: minimal inhibitory concentration (MIC) E. coli AR-0001
FaDu cells [4] = test: MTT cell viability at fixed 100 µM, FaDu cells; assay type: cell-based; details: 24 h, described in words (Figure 2)
Procedure: Test compounds 2–25 were dissolved in hybridoma-grade dimethyl sulfoxide (Millipore, Sigma, Burlington, MA, USA) to prepare stock solutions at concentrations of 10–25 mg/mL. […] For in vitro anticancer activity screening, the compounds were thawed at room temperature, protected from light, and the aliquots were diluted in complete cell culture media to achieve a final concentration of 100 µM and used for the in vitro assays. The cytotoxicity assays were performed in triplicate.
as §1, §2

K. pneumoniae AR-0003 [5] = test: Broth microdilution MIC, K. pneumoniae AR-0003; assay type: cell-based; details: Klebsiella pneumoniae, AR0003; KPC-3; CAMHB, 18 ± 2 h; read-out: minimal inhibitory concentration (MIC) K. pneumoniae AR-0003
FaDu cells [6] = test: Superoxide dismutase (SOD) activity in FaDu cell lysate; assay type: cell-based; details: 6 h, 0.25% DMSO, versus untreated control (DMSO)
Procedure: FaDu cells were seeded onto 6-well tissue culture plates at a density of 5 × 10^5 cells per well and incubated overnight to allow for cell attachment. Following the incubation period, the cells were treated with the selected compounds dissolved in tissue culture medium containing 0.25% DMSO and incubated for an additional 6 h. After the treatment, the medium was aspirated, and the cells were washed twice with phosphate-buffered saline (PBS) to remove residual compounds. The cells were then trypsinized for 10 min to detach them from the culture surface. Following trypsinization, the cells were collected by centrifugation, washed with ice-cold PBS to remove any residual trypsin, and resuspended in 0.5 mL of ice-cold PBS. The cell suspension was then subjected to sonication on ice for disruption. After sonication, the samples were centrifuged at 10,000× g for 10 min at 4 °C to remove cell debris. The resulting supernatant was carefully collected for the subsequent assessment of SOD activity. The activity of superoxide dismutase (SOD) was determined by using a commercial colorimetric assay kit (Superoxide Dismutase (SOD) Colorimetric Activity Kit, Catalog Number EIASODC) (Invitrogen, ThermoFisher Scientific, Waltham, MA, USA) following the manufacturer’s instructions.

E. faecalis AR-0671 = test: Broth microdilution MIC, E. faecalis AR-0671; assay type: cell-based, Enterococcus faecalis; details: CAMHB; for MIC: Enterococcus faecalis, AR0671, 18 ± 2 h, read-out: minimal inhibitory concentration (MIC) E. faecalis AR-0671
Text: (§4) The multidrug-resistant S. aureus strain TCH 1516 [USA 300-HOU-MR] was obtained from the American Type Culture Collection (ATCC, Manassas, VA, USA) (Table 1). E. faecalis AR-0671, multidrug-resistant E. coli AR-0001, K. pneumoniae AR-0003, P. aeruginosa AR-1114, and A. baumannii AR-0273 strains were acquired from the Centers for Disease Control and Prevention (CDC) AR isolate bank (Table 1). Prior to the initiation of this study, all microbial strains were stored in commercial cryopreservation systems at a temperature of −80 °C. The strains were cultivated on Columbia sheep blood agar (Becton Dickinson, Franklin Lakes, NJ, USA) or potato dextrose agar (PDA) for Candida (Becton Dickinson, Franklin Lakes, NJ, USA).
(§5) The antimicrobial activity of 3-((3-hydroxyphenyl)amino)propanoic acid derivatives was assessed by using the broth microdilution method, following the guidelines outlined by the Clinical Laboratory Standards Institute (CLSI), with modifications. In brief, the compounds were dissolved in dimethyl sulfoxide (DMSO) to attain a final concentration of 25–30 mg/mL. Vancomycin hydrochloride (MedChem express, Cat. No. HY-17362), cefazolin (MedChem express, Cat. No. HY-B1892), and meropenem (MedChem express, Cat. No. HY-13678) were used as control antimicrobial drugs and were dissolved in DMSO as described before. Dilution series were prepared in deep 96-well microplates to achieve a two-fold concentration range of 0.25, 0.5, 1, 2, 4, 8, 16, 32, and 64 µg/mL, utilizing cation-adjusted Mueller–Hinton broth (CAMHB) as the growth medium. The microplates containing the dilution series were then inoculated with fresh cultures of each tested organism to reach a final concentration of 5 × 10^4 CFU (colony-forming units) of the test organism in media containing 1% DMSO and 1× drug concentration, with a volume of 200 µL per well. Wells that were inoculated with medium containing 1% DMSO served as positive controls. Subsequently, the microplates were incubated at 35 ± 1 °C for 18 ± 2 h. Following the incubation period, the plates were examined by using a manual microplate viewer (Sensititre Manual Viewbox, ThermoFisher Scientific, Waltham, MA, USA). […] All experiments were conducted in duplicate with three technical replicates for each condition.

S. aureus TCH 1516 [7] = test: Broth microdilution MIC, S. aureus TCH 1516; assay type: cell-based; details: Staphylococcus aureus, MRSA / USA300, mecA MRSA isolate, USA300 lineage; CAMHB, 18 ±; read-out: minimal inhibitory concentration (MIC) S. aureus TCH 1516
A. baumannii AR-0273 = test: Broth microdilution MIC, A. baumannii AR-0273; assay type: cell-based, Acinetobacter baumannii; details: OXA-23, CAMHB; for MIC: Acinetobacter baumannii, AR0273, 18 ± 2 h, read-out: minimal inhibitory concentration (MIC) A. baumannii AR-0273
Text: as §4, §5

P. aeruginosa AR-1114 [8] = test: Broth microdilution MIC, P. aeruginosa AR-1114; assay type: cell-based; details: Pseudomonas aeruginosa, AR1114; IMP-15; CAMHB, 18 ± 2 h; read-out: minimal inhibitory concentration (MIC) P. aeruginosa AR-1114
S. aureus TCH 1516 [9] = test: Broth microdilution MIC, S. aureus TCH 1516; assay type: cell-based, Staphylococcus aureus; details: mecA MRSA isolate, USA300 lineage; CAMHB, 18 ± 2 h
Text: as §4, §5

E. coli AR-0001 [10] = test: Broth microdilution MIC, E. coli AR-0001; assay type: cell-based, Escherichia coli; details: multidrug-resistant, KPC-3; CAMHB
Text: as §4, §5

P. aeruginosa AR-1114 [11] = test: Broth microdilution MIC, P. aeruginosa AR-1114; assay type: cell-based, Pseudomonas aeruginosa; details: IMP-15; CAMHB
Text: as §4, §5

K. pneumoniae AR-0003 [12] = test: Broth microdilution MIC, K. pneumoniae AR-0003; assay type: cell-based, Klebsiella pneumoniae; details: KPC-3; CAMHB
Text: as §4, §5

Row | MIC (E. coli AR-0001 [3]) | MIC (K. pneumoniae AR-0003 [5]) | MIC (E. faecalis AR-0671) | MIC (S. aureus TCH 1516 [7]) | MIC (A. baumannii AR-0273) | MIC (P. aeruginosa AR-1114 [8]) | minimal inhibitory concentration (MIC) S. aureus TCH 1516 (S. aureus TCH 1516 [9]) | minimal inhibitory concentration (MIC) E. faecalis AR-0671 (E. faecalis AR-0671) | minimal inhibitory concentration (MIC) A. baumannii AR-0273 (A. baumannii AR-0273) | minimal inhibitory concentration (MIC) E. coli AR-0001 (E. coli AR-0001 [10]) | minimal inhibitory concentration (MIC) P. aeruginosa AR-1114 (P. aeruginosa AR-1114 [11]) | minimal inhibitory concentration (MIC) K. pneumoniae AR-0003 (K. pneumoniae AR-0003 [12]) | Structure (SMILES) | IC50 (HEK293 cells) | IC50 (FaDu cells [1]) | hydrogen peroxide levels (optical density at 525 nm) (FaDu cells [2]) | post-treatment viability (MTT assay) (FaDu cells [4]) | IC50 (HEK293 cells; Homo sapiens) | SOD activity (U/mL of cell lysate) (FaDu cells [6]) | IC50 (FaDu cells [1]; Homo sapiens)
1 |  |  |  |  |  |  |  |  |  |  |  |  | N.N.[Cl][Pt][Cl] [CP, Cisplatin, reference compound] | 15.9 µM | 16.3 µM | lower level of hydrogen peroxide production than the tested compounds |  |  |  | 
2 | 64 µg/mL (≈ 119 µM) | > 64 µg/mL | 16 µg/mL (≈ 29.7 µM) | 32 µg/mL (≈ 59.3 µM) | > 64 µg/mL | > 64 µg/mL |  |  |  |  |  |  | O=C(CCN(CCC(=O)N/N=C1\C(=O)Nc2ccccc21)c1cccc(O)c1)N/N=C1\C(=O)Nc2ccccc21 [Compound 25] |  |  | significantly higher | most promising reduction in cell viability | 11.7 µM | significantly higher; also recorded: highest SOD activity | 5.28 µM
3 | > 64 µg/mL | > 64 µg/mL | 32 µg/mL (≈ 144 µM) | 8 µg/mL (≈ 36 µM) | > 64 µg/mL | > 64 µg/mL | 16 µg/mL (≈ 72 µM) |  |  |  |  |  | O=C1CCN(c2cccc(O)c2)C(=S)N1 [Compound 6, 1-(3-Hydroxyphenyl)-2-thioxotetrahydropyrimidin-4(1H)-one] |  |  | significantly higher | most promising reduction in cell viability | 22.6 µM | significantly higher | 13.4 µM
4 | > 64 µg/mL | > 64 µg/mL | 32 µg/mL (≈ 155 µM) | 16 µg/mL (≈ 77.6 µM) | > 64 µg/mL | > 64 µg/mL |  |  |  |  |  |  | O=C1CCN(c2cccc(O)c2)C(=O)N1 [Compound 5, 1-(3-Hydroxyphenyl)dihydropyrimidine-2,4(1H,3H)-dione] |  |  | significantly higher |  | 41.8 µM | significantly higher | 9.9 µM
5 | > 64 µg/mL | > 64 µg/mL | > 64 µg/mL | > 64 µg/mL | > 64 µg/mL | > 64 µg/mL | >64 µg/mL | >64 µg/mL | >64 µg/mL | >64 µg/mL | >64 µg/mL | >64 µg/mL | O=C(O)CCN(CCC(=O)O)c1cccc(O)c1 [Compound 2, 3,3′-((3-Hydroxyphenyl)azanediyl)dipropionic Acid] |  |  |  | minimal cytotoxicity |  |  | 
6 |  |  |  |  |  |  |  |  |  |  |  |  | COc1cccc2c1C(=O)c1c(O)c3c(c(O)c1C2=O)C[C@@](O)(C(=O)CO)C[C@@H]3O[C@H]1C[C@H](N)[C@H](O)[C@H](C)O1 [DOX, doxorubicin hydrochloride, reference compound] |  |  | significant increase |  |  |  | 1.81 µM
